In US7880002B2, “Substituted piperazinyl-pyrrolidine compounds useful as chemokine receptor antagonists” (Millennium Pharmaceuticals, Inc., priority 2004, dated 2011):

biological target: T1, CCR1 (Homo sapiens, UniProt P32246); test: CCR1 inhibition (THP-1 FLIPR assay / THP-1 whole cell radioligand binding assay; the patent does not say which gave the values); format: cell-based; conditions: threshold list, less than 100 nm; compounds of Table 1; read-out: inhibitory activity
T1 construct: a monocytic derived cell line that endogenously expresses CCR1; host or cells: THP-1 cells
T1 sequence (P32246 1-355): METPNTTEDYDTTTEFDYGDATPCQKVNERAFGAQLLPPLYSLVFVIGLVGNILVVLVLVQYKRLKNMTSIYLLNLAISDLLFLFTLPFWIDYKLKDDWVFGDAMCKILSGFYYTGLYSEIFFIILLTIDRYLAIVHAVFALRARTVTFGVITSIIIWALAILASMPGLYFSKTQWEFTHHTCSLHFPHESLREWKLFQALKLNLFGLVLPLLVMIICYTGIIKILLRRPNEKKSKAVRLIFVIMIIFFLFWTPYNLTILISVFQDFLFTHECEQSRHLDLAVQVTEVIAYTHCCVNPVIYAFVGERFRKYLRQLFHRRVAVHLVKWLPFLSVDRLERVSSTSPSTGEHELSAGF
Method: The primary screening assay is a FLIPR® (Fluorometric Imaging Plate Reader, available from Molecular Devices Corporation, Sunnyvale, Calif.) assay using THP-1 cells (ATCC, Catalog No. TIB 202), a monocytic derived cell line that endogenously expresses CCR1.
The cells were resuspended at 1×10^6 cells/ml in dye loading media (growth media (RPMI+10% FBS (Fetal Bovine serum)+5.5×10^−5M 2-mercaptoethanol)+10 mM HEPES (N-2-hydroxyethylpiperazine-N′-2-ethane-sulfonic acid)+2.5 mM probenecid+fluo-3 (1:250)). The cells were incubated for 1 hour at 37° C. and then washed in FLIPR wash buffer (100 mL 10× HBSS (Hanks Buffered Saline Solution) (w/Ca++/Mg++)+20 mL 1M HEPES+1 g BSA+10 mL 250 mM probenecid+water (to make 1 L)) and plated at 50,000 cells/well in black/clear 384 well plates. The plates were transferred to FLIPR where the ability of different concentrations of compounds to inhibit RANTES induced calcium flux was assessed. Inhibition of the CCR1 response was reflected by a decrease of the fluorescence signal relative to the positive controls (RANTES alone).
THP-1 Whole Cell Radioligand Binding Assay
The cells were washed with PBS (phosphate buffered saline) and resuspended in binding buffer (10 mM HEPES pH 7.2, 1× HBSS (w/Ca^2+, Mg^2+) 0.5% BSA, 0.02% Na-azide) at 4×10^6 cells/ml (for 200, 000 cells/well). Cells were incubated with 0.1 to 0.2 nM [^125I]-labeled MIP-1α with or without unlabeled competitor (MIP-1α) or various concentrations of compounds for 60 minutes at room temperature. The assay was terminated by vacuum filtration through glass fiber filters (GF/B, Packard) which were presoaked in 0.3% polyethyleneimine. The filters were washed with wash buffer (10 mM HEPES, pH 7.2, 1 mM CaCl2, 5 mM MgCl2 0.5M NaCl), dried and the amount of bound radioactivity was determined by scintillation counting.

SMILES | IC50
O=C(c1ccc(Cl)cc1)N1CCN([C@H]2CN(c3nccc(C(F)(F)F)n3)C[C@@H]2O)CC1 [Example 68, (3S,4S)-4-[4-(4-chlorobenzoyl)piperazin-1-yl]-1-[4-(trifluoromethyl)pyrimidin-2-yl]pyrrolidin-3-ol] | < 100 nM
O=C(c1ccc(Cl)cc1)N1CCN([C@@H]2CN(c3nc(Nc4ccc(Cl)cc4)cc(C(F)(F)F)n3)C[C@H]2O)CC1 (stereo in doubt) [Example 106, 4-[4-(4-chlorobenzoyl)piperazin-1-yl]-1-[4-[(4-chlorophenyl)amino]-6-(trifluoromethyl)pyrimidin-2-yl]pyrrolidin-3-ol] | < 100 nM
O=C(c1ccc(Cl)cc1)N1CCN([C@@H]2CN(c3ncnc4cc(Cl)ccc34)C[C@H]2O)CC1 (stereo in doubt) [Example 23, 4-[4-(4-chlorobenzoyl)piperazin-1-yl]-1-(7-chloroquinazolin-4-yl)pyrrolidin-3-ol] | < 100 nM
O[C@H]1CN(c2ncnc3cc(C(F)(F)F)ccc23)C[C@@H]1N1CCN(Cc2ccc(Cl)cc2)CC1 (stereo in doubt) [Example 97, 4-[4-(4-chlorobenzyl)piperazin-1-yl]-1-[7-(trifluoromethyl)quinazolin-4-yl]pyrrolidin-3-ol] | < 100 nM
O[C@H]1CN(c2nc(C(F)(F)F)nc3ccccc23)C[C@@H]1N1CCN(Cc2ccc(Cl)cc2)CC1 (stereo in doubt) [Example 95, 4-[4-(4-chlorobenzyl)piperazin-1-yl]-1-[2-(trifluoromethyl)quinazolin-4-yl]pyrrolidin-3-ol] | < 100 nM
O=C(c1ccc(Cl)cc1)N1CCN([C@@H]2CN(c3ncnc4cc(Cl)cnc34)C[C@H]2O)CC1 (racemic) [Example 162, 4-[4-(4-chlorobenzoyl)piperazin-1-yl]-1-(7-chloropyrido[3,2-d]pyrimidin-4-yl)pyrrolidin-3-ol] | < 100 nM
CCc1cc(C(F)(F)F)nc(N2C[C@@H](O)[C@H](N3CCN(C(=O)c4ccc(Cl)cc4)CC3)C2)n1 (stereo in doubt) [Example 121, 4-[4-(4-chlorobenzoyl)piperazin-1-yl]-1-[4-ethyl-6-(trifluoromethyl)pyrimidin-2-yl]pyrrolidin-3-ol] | < 100 nM
O=C(c1ccc(Cl)cc1)N1CCN([C@H]2CN(c3ncnc4cnccc34)C[C@@H]2O)CC1 (racemic) [Example 182, 4-[4-(4-chlorobenzoyl)piperazin-1-yl]-1-pyrido[3,4-d]pyrimidin-4-ylpyrrolidin-3-ol] | < 100 nM
O[C@H]1CN(c2ncnc3cc(Cl)ccc23)C[C@@H]1N1CCN(Cc2ccc(Cl)cc2)CC1 (stereo in doubt) [Example 87, 4-[4-(4-chlorobenzyl)piperazin-1-yl]-1-(7-chloroquinazolin-4-yl)pyrrolidin-3-ol] | < 100 nM
O=C(c1ccc(Cl)cc1)N1CCN([C@H]2CN(c3ccc4cccc(Cl)c4n3)C[C@@H]2O)CC1 (stereo in doubt) [Example 85, 4-[4-(4-chlorobenzoyl)piperazin-1-yl]-1-(8-chloroquinolin-2-yl)pyrrolidin-3-ol] | < 100 nM
O=C(c1ccc(Cl)cc1)N1CCN([C@@H]2CN(c3ncnc4cc(F)ccc34)C[C@H]2O)CC1 (stereo in doubt) [Example 86, 4-[4-(4-chlorobenzoyl)piperazin-1-yl]-1-(7-fluoroquinazolin-4-yl)pyrrolidin-3-ol] | < 100 nM

Next, values leading:

IC50 | SMILES
< 100 nM | O=C(c1ccc(Cl)cc1)N1CCN([C@@H]2CN(c3nc(C(F)(F)F)nc4cnccc34)C[C@H]2O)CC1 (racemic) [Example 137, 4-[4-(4-chlorobenzoyl)piperazin-1-yl]-1-[2-(trifluoromethyl)pyrido[3,4-d]pyrimidin-4-yl]pyrrolidin-3-ol]
< 100 nM | Cc1ccc2nc(C(F)(F)F)nc(N3C[C@H](O)[C@@H](N4CCN(C(=O)c5ccc(Cl)cc5)CC4)C3)c2c1 (stereo in doubt) [Example 174, 4-[4-(4-chlorobenzoyl)piperazin-1-yl]-1-[6-methyl-2-(trifluoromethyl)quinazolin-4-yl]pyrrolidin-3-ol]
< 100 nM | CNC(=O)Nc1ccc2nc(C(F)(F)F)nc(N3C[C@H](O)[C@@H](N4CCN(C(=O)c5ccc(Cl)cc5)CC4)C3)c2c1 (stereo in doubt) [Example 196, N-[4-{3-[4-(4-chlorobenzoyl)piperazin-1-yl]-4-hydroxypyrrolidin-1-yl}-2-(trifluoromethyl)quinazolin-6-yl]-N′-methylurea]
< 100 nM | Cc1nc(C(F)(F)F)nc(N2C[C@@H](O)[C@H](N3CCN(C(=O)c4ccc(Cl)cc4)CC3)C2)c1C (stereo in doubt) [Example 119, 4-[4-(4-chlorobenzoyl)piperazin-1-yl]-1-[5,6-dimethyl-2-(trifluoromethyl)pyrimidin-4-yl]pyrrolidin-3-ol]
< 100 nM | NC(=O)c1ccc2nc(C(F)(F)F)nc(N3C[C@@H](O)[C@H](N4CCN(C(=O)c5ccc(Cl)cc5)CC4)C3)c2c1 [Example 189, 4-{(3R,4R)-3-[4-(4-chlorobenzoyl)piperazin-1-yl]-4-hydroxypyrrolidin-1-yl}-2-(trifluoromethyl)quinazoline-6-carboxamide]
< 100 nM | CNC(=O)c1ccc2nc(C(F)(F)F)nc(N3C[C@@H](O)[C@H](N4CCN(C(=O)c5ccc(Cl)cc5)CC4)C3)c2c1 (stereo in doubt) [Example 198, 4-{3-[4-(4-chlorobenzoyl)piperazin-1-yl]-4-hydroxypyrrolidin-1-yl}-N-methyl-2-(trifluoromethyl)quinazoline-6-carboxamide]
< 100 nM | O=C(c1ccc(Cl)cc1)N1CCN([C@@H]2CN(c3nc(C(F)(F)F)nc4ccc(-c5nn[nH]n5)cc34)C[C@H]2O)CC1 (stereo in doubt) [Example 204, 4-[4-(4-chlorobenzoyl)piperazin-1-yl]-1-[6-(2H-tetrazol-5-yl)-2-(trifluoromethyl)quinazolin-4-yl]pyrrolidin-3-ol]
< 100 nM | O=C(c1ccc(Cl)cc1)N1CCN([C@H]2CN(c3nc(C(F)(F)F)nc4cc(F)c(F)cc34)C[C@@H]2O)CC1 (stereo in doubt) [Example 179, 4-[4-(4-chlorobenzoyl)piperazin-1-yl]-1-[6,7-difluoro-2-(trifluoromethyl)quinazolin-4-yl]pyrrolidin-3-ol]
< 100 nM | O=C(c1ccc(Cl)cc1)N1CCN([C@@H]2CN(c3nc(C(F)(F)F)nc4ccc(N5CCNC5=O)cc34)C[C@H]2O)CC1 (stereo in doubt) [Example 202, 1-[4-{3-[4-(4-chlorobenzoyl)piperazin-1-yl]-4-hydroxypyrrolidin-1-yl}-2-(trifluoromethyl)quinazolin-6-yl]imidazolidin-2-one]
< 100 nM | O=C(c1ccc(Cl)cc1)N1CCN([C@H]2CN(c3nc(C(F)(F)F)nc4c(F)cccc34)C[C@@H]2O)CC1 (stereo in doubt) [Example 178, 4-[4-(4-chlorobenzoyl)piperazin-1-yl]-1-[8-fluoro-2-(trifluoromethyl)quinazolin-4-yl]pyrrolidin-3-ol]
< 100 nM | COc1ccc2nc(C(F)(F)F)nc(N3C[C@@H](O)[C@H](N4CCN(C(=O)c5ccc(Cl)cc5)CC4)C3)c2n1 (racemic) [Example 200, 4-[4-(4-chlorobenzoyl)piperazin-1-yl]-1-[6-methoxy-2-(trifluoromethyl)pyrido[3,2-d]pyrimidin-4-yl]pyrrolidin-3-ol]
< 100 nM | O=C(c1ccc(Cl)cc1)N1CCN([C@H]2CN(c3nc(C(F)(F)F)nc4cccc(Cl)c34)C[C@@H]2O)CC1 (stereo in doubt) [Example 176, 4-[4-(4-chlorobenzoyl)piperazin-1-yl]-1-[5-chloro-2-(trifluoromethyl)quinazolin-4-yl]pyrrolidin-3-ol]
< 100 nM | O=C(c1ccc(Cl)cc1)N1CCN([C@H]2CN(c3cccc(C(F)(F)F)n3)C[C@@H]2O)CC1 [Example 79]
< 100 nM | O=C(c1ccc(Cl)cc1)N1CCN([C@H]2CN(c3nc(C(F)(F)F)nc4cccc(F)c34)C[C@@H]2O)CC1 (stereo in doubt) [Example 172, 4-[4-(4-chlorobenzoyl)piperazin-1-yl]-1-[5-fluoro-2-(trifluoromethyl)quinazolin-4-yl]pyrrolidin-3-ol]
